We go through 2 compounds from ChEMBL document CHEMBL5385901, “Drug repurposing of propafenone to discover novel anti-tumor agents by impairing homologous recombination to delay DNA damage recovery of rare disease conjunctival melanoma” (Eur J Med Chem, 2023).

The structures appear in SMILES notation.

Data set [1] relates to CRMM-1. In words: Antitumor activity against human CRMM-1 cells xenografted in immunodeficient NCG mouse assessed as mean tumor volume at 10 mg/kg, ip for 28 days administered five times per week (reference value: 540 mm3). The format is functional. As to conditions: time 28 day.
Data set [2] has as its system CRMM-1. Description: Antitumor activity against human CRMM-1 cells xenografted in immunodeficient NCG mouse assessed as mean tumor volume at 20 mg/kg, ip for 28 days administered five times per week (reference value: 540 mm3). In kind it is functional. As to conditions: time 28 day. On the technique in general: Xenograft models place foreign cells or tissue in a host animal.

For data set [3], the system named is CRMM-1. In words: Antitumor activity against human CRMM-1 cells xenografted in immunodeficient NCG mouse assessed as tumor growth suppression at 10 mg/kg, ip for 28 days administered five times per week relative to control. As to conditions: time 28 day. The format is functional.
The subject of data set [4] is CRMM-1. In words: Antitumor activity against human CRMM-1 cells xenografted in immunodeficient NCG mouse assessed as tumor growth suppression at 20 mg/kg, ip for 28 days administered five times per week relative to control. In kind it is functional. The settings on record: time 28 day.
Data set [5] can be described thus: Toxicity in immunodeficient NCG mouse xenografted with human CRMM-1 cells assessed as body weight loss at 10 to 20 mg/kg, ip for 28 days administered five times per week. The format is organism-based. As to conditions: in vivo, 672 h, dose 10-20 mg/kg, time 28 day.
Data set [6] can be described thus: Toxicity in immunodeficient NCG mouse xenografted with human CRMM-1 cells assessed as change in serum ALT level at 10 to 20 mg/kg, ip for 28 days administered five times per week. In kind it is organism-based. The settings on record: in vivo, 672 h, dose 10-20 mg/kg, time 28 day.
The nature of data set [7]: Toxicity in immunodeficient NCG mouse xenografted with human CRMM-1 cells assessed as change in serum AST level at 10 to 20 mg/kg, ip for 28 days administered five times per week. The format is organism-based. As to conditions: in vivo, 672 h, dose 10-20 mg/kg, time 28 day.
The nature of data set [8]: Toxicity in immunodeficient NCG mouse xenografted with human CRMM-1 cells assessed as change in serum CREA level at 10 to 20 mg/kg, ip for 28 days administered five times per week. The settings on record: in vivo, 672 h, dose 10-20 mg/kg, time 28 day. In kind it is organism-based.
A short description of data set [9]: Toxicity in immunodeficient NCG mouse xenografted with human CRMM-1 cells assessed as change in serum urea level at 10 to 20 mg/kg, ip for 28 days administered five times per week. In kind it is organism-based. The settings on record: in vivo, 672 h, dose 10-20 mg/kg, time 28 day.
A short description of data set [10]: Toxicity in immunodeficient NCG mouse xenografted with human CRMM-1 cells assessed as pathomorphological change in liver at 10 to 20 mg/kg, ip for 28 days administered five times per week by H and E staining based analysis. The format is organism-based. As to conditions: in vivo, 672 h, dose 10-20 mg/kg, time 28 day.
Data set [11] in a line: Toxicity in immunodeficient NCG mouse xenografted with human CRMM-1 cells assessed as pathomorphological change in kidney at 10 to 20 mg/kg, ip for 28 days administered five times per week by H and E staining based analysis. As to conditions: in vivo, 672 h, dose 10-20 mg/kg, time 28 day. In kind it is organism-based.
Data set [12] concerns CRMM-1. In words: Antitumor activity against human CRMM-1 cells xenografted in immunodeficient NCG mouse assessed as mean tumor volume at 10 mg/kg, po for 28 days administered five times per week (reference value: 540 mm3). The format is functional. As to conditions: time 28 day.
For data set [13], the system named is CRMM-1. Description: Antitumor activity against human CRMM-1 cells xenografted in immunodeficient NCG mouse assessed as tumor growth suppression at 10 mg/kg, po for 28 days administered five times per week relative to control. In kind it is functional. As to conditions: time 28 day.
Data set [14] is described as follows: Toxicity in immunodeficient NCG mouse xenografted with human CRMM-1 cells assessed as pathomorphological change in liver at 10 mg/kg, po for 28 days administered five times per week by H and E staining based analysis. In kind it is organism-based. The settings on record: in vivo, 672 h, time 28 day.
Data set [15] in a line: Toxicity in immunodeficient NCG mouse xenografted with human CRMM-1 cells assessed as pathomorphological change in kidney at 10 mg/kg, po for 28 days administered five times per week by H and E staining based analysis. In kind it is organism-based. As to conditions: in vivo, 672 h, time 28 day.

In the case of `Cl.Cl.O=C(CCCc1ccccc1)c1c(OCCCN2CCNCC2)ccc2ccccc12`, the Activity with CRMM-1 [1] is on record as 390 mm3; in the data set with CRMM-1 [2], 340 mm3; with CRMM-1 [3], 21%; with CRMM-1 [4], 33%; in [5], “Non-Toxic”; in data set [6], “Non-Toxic”. Further, the Activity entry in data set [7], in [8], in data set [9], in data set [10] and in data set [11] was “Non-Toxic” in each case.

With `Cn1cnc2c(F)c(Nc3ccc(Br)cc3F)c(C(=O)NOCCO)cc21` [BINIMETINIB], the Activity with CRMM-1 [12] was 270 mm3; with CRMM-1 [13], 41%; in [14], “Non-Toxic”; in data set [15] it was “Non-Toxic”.
